Assay results as given in patent US9440969B2, “Compounds and methods for kinase modulation, and indications therefor” (PLEXXIKON INC., priority 2009, dated 2016).

What was measured:
B-Raf = B-Raf (Homo sapiens, UniProt P15056); assay: B-Raf kinase activity assay (AlphaScreen, biotin-MEK1 substrate); settings: 100 μM ATP, 100 nM biotin-MEK1, 45 minutes at room temperature; read-out: Biochemical activity (IC50 μM) B-Raf
Outline: (§1)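 Each Raf enzyme (0.1 ng) phosphorylates 100 nM biotin-MEK1 in pH 7.0 HEPES with Mg2+/Mn2+, 100 μM ATP final, 45 min at room temperature. Phospho-MEK1/2 antibody with AlphaScreen beads is read after 3 h. IC50 comes from an 8-point dilution series.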

B-Raf V600E = B-Raf V600E (Homo sapiens, UniProt P15056, V600E); assay: B-Raf V600E kinase activity assay (AlphaScreen, biotin-MEK1 substrate); settings: 100 μM ATP, 100 nM biotin-MEK1, 45 minutes at room temperature, read-out: Biochemical activity (IC50 μM) V600E
B-Raf V600E, sequence (P15056 whole entry V600E): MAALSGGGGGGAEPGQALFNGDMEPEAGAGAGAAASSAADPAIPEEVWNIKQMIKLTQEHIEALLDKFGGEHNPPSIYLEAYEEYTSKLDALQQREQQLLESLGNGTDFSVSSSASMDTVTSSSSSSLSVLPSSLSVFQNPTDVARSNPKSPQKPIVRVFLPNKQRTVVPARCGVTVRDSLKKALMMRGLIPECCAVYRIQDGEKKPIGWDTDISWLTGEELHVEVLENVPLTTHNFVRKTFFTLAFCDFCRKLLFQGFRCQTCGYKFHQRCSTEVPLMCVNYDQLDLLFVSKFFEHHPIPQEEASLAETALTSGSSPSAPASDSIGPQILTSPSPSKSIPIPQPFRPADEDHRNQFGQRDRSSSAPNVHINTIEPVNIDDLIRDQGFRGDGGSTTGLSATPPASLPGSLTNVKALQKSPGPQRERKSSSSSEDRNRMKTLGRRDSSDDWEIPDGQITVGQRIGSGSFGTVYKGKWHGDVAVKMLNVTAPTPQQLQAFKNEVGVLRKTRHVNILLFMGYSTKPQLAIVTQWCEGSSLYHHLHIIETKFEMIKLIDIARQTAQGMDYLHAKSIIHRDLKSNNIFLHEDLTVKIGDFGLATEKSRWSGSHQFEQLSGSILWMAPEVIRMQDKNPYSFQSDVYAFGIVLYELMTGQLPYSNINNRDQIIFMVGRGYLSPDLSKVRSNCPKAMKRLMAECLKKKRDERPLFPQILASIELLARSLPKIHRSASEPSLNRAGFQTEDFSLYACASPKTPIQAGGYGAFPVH
Outline: as §1

c-Raf-1 = c-Raf-1 (Homo sapiens, UniProt P04049); assay: c-Raf-1 kinase activity assay (AlphaScreen, biotin-MEK1 substrate); settings: 100 μM ATP, 100 nM biotin-MEK1, 45 minutes at room temperature; read-out: Biochemical activity (IC50 μM) c-Raf-1
c-Raf-1, sequence (P04049 whole entry Y340D/Y341D, form open): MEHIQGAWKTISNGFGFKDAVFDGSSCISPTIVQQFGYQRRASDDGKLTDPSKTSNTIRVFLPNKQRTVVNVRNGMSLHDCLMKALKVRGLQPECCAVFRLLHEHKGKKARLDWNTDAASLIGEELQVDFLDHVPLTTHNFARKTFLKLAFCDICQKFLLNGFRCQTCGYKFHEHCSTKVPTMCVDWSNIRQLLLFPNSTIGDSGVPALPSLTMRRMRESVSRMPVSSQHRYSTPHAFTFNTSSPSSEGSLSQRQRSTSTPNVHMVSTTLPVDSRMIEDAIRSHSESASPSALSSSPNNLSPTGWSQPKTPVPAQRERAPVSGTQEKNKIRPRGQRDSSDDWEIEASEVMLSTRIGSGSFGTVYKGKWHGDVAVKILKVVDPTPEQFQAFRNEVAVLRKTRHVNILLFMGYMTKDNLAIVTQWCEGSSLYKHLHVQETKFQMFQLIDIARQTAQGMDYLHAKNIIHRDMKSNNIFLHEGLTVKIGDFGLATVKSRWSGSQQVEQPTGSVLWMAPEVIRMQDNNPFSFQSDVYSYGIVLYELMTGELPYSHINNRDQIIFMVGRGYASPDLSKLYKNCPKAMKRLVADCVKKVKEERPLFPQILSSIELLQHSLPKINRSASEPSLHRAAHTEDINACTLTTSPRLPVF
Outline: as §1

[1] = test system: A375 melanoma (B-Raf V600E mutation); assay: A375 cell growth inhibition (ATPlite luminescence); format: cell-based; settings: Homo sapiens, A-375, 72 h, A375 cells, incubated 3 days with compound
Experimental: Compounds are assessed in a variety of cell based assays. For example human cell lines with B-Raf V600E mutation (A375 melanoma, SKMEL3 melanoma, and COLO205 colon adenocarcinoma), as well as tumorigenic cell lines with wild-type B-RAF (SW620 colon adenocarcinoma) or with Ras mutations (SKMEL2 melanoma and IPC298 melanoma). Similar assays may be used to assess additional tumorigenic cell lines with Ras mutations, including, but not limited to, M202, M207, M243, M244, M296, S117, HCT116, HCT15, DLD1, MiaPaCa, A549, NCI-H23, NCI-H460, HOP62, MDA-MB231, Hs-578T, HL60, MOLT-4, and CCRF-CEM.
On day 1, cells are counted, then centrifuged in a conical tube for 5 minutes at 1000 rpm. The supernatant is removed and cells are re-suspended as follows: • SW620 (ATCC catalog #CCL-27): resuspend in Leibovitz's L-15 medium, 2 mM L-glutamine, 10% fetal bovine serum to 6×10^4 cells/mL. • A375 (ATCC catalog #CRL-1619): resuspend in Dulbecco's modified Eagle's medium, 4 mM L-glutamine, 4.5 g/L D-glucose, 10% fetal bovine serum to 6×10^4 cells/mL. • COLO205 (ATCC catalog #CCL-222): resuspend in RPMI 1640, 2 mM L-glutamine, 1.5 g/L sodium bicarbonate, 4.5 g/L D-glucose, 10 mM HEPES, 1.0 mM sodium pyruvate, 10% fetal bovine serum to 6×10^4 cells/mL. • SKMEL2 (ATCC catalog #HTB-68): resuspend in Minimum Eagle essential medium, 2 mM L-glutamine, 1.5 g/L sodium bicarbonate, 0.1 mM non-essential amino acids, 1.0 mM sodium pyruvate, 10% fetal bovine serum to 6×10^4 cells/mL. • SKMEL3 (ATCC catalog #HTB-69): resuspend in McCoy's 5A medium, 1.5 mM L-glutamine, 15% fetal bovine serum to 6×10^4 cells/mL. • IPC298 (DSMZ catalog #ACC 251): resuspend in RPMI 1640, 2 mM L-glutamine, 10% fetal bovine serum to 6×10^4 cells/mL.
The cells are plated, 50 μL in each well of a 96-well dish (Corning 3610) and incubated at 37° C. in 5% CO2 overnight, cells plated to a final concentration of cells as follows:
On day 2, compound at a maximum concentration of 5 mM is serially diluted 1:3 (e.g. 10 μL with 30 μL dimethyl sulfoxide) for a total of 8 point titration with DMSO as a control. A 1 μL aliquot of each dilution point and control is added to 249 μL growth media and 50 μL is added to a well containing cells, providing 10 μM compound at the maximum concentration point. The cells are incubated for 3 days at 37° C. in 5% CO2.
On day 5, ATPlite 1 step Luminescence Assay System (Perkin Elmer #6016739) is brought to room temperature along with the cell cultures. ATPlite is added 25 μL to each well, shake for 2 minutes, and the cells are incubated at room temperature for 10 minutes, then luminescence is read on Safire reader. The measured luminescence correlates directly with cell number, such that the reading as a function of compound concentration is used to determine the IC50 value.
It is understood that the results of these assays may vary as assay conditions are varied. Inhibition levels determined under the conditions described herein represent a relative activity for the compounds tested under the specific conditions employed. The cell based assays are likely to show variability due to the complexity of the system and the sensitivity thereof to any changes in the assay conditions. […] Results for compounds that are tested and show substantially no inhibition below the highest tested concentration are represented as “-” in the tables below. In some instances, the compounds were not tested in all of the assays, or assay results were not valid, as indicated by NA in the tables below.

[2] = test system: COLO205 colon adenocarcinoma (B-Raf V600E mutation); assay: COLO205 cell growth inhibition (ATPlite luminescence); format: cell-based; settings: Homo sapiens, COLO 205, 72 h, COLO205 cells, incubated 3 days with compound
Outline: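 Cells seeded at 6×10^4 cells/mL in line-specific medium with 10% FBS, held overnight at 37°C, then given an 8-point 1:3 compound titration (top 10 μM final) for 3 days at 37°C, 5% CO2. ATP content read by ATPlite luminescence as a cell-number proxy; IC50 fitted from luminescence versus concentration.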

B-Raf, sequence (P15056 whole entry): as the sequence (P15056 whole entry V600E) above, with E600V counted along it

IC50 (B-Raf): < 0.1 µM
IC50 (B-Raf V600E): < 0.1 µM
IC50 (c-Raf-1): < 0.1 µM
IC50 [1]: > 1 µM
IC50 [2]: < 1 µM
SMILES: CCCS(=O)(=O)Nc1ccc(F)c(C(=O)c2c[nH]c3ncc(-c4cnc(-n5ccccc5=O)cn4)cc23)c1F [P-1600, Propane-1-sulfonic acid (2,4-difluoro-3-{5-[5-(2-oxo-2H-pyridin-1-yl)-pyrazin-2-yl]-1H-pyrrolo[2,3-b]pyridine-3-carbonyl}-phenyl)-amide]
